Results published in PubChem BioAssay AID2060901 (Molecular Pharmacology Branch, DTP, NCI, 2025).
Blank lines part the entries; values can stand above or below the compound they belong to.

Test system: 422866-222-R5-J1-PDC complex spheroids viability
Experiment: Anticancer human tumor 422866-222-R5-J1-PDC patient-derived pancreatic adenocarcinoma cell line growth inhibition [RAS]
Conditions: for IC50: curve of first compound; for viability, T/C: stronger effect = lower value
Outline: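 Multi-cell-type spheroids: tumor cells plus HUVEC endothelial cells and mesenchymal stem cells. RAS-pathway inhibitors were combined with targeted agents, each dosed in half-log steps down from clinical Cmax, or from 10 microM when Cmax was unknown.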

[1] = second compound 0.0316 µM, first compound 0.0316 µM
[2] = second compound 0.0316 µM, first compound 0.1 µM
[3] = second compound 0.0316 µM, first compound 0.316 µM
[4] = second compound 0.0316 µM, first compound 1 µM
[5] = second compound 0.1 µM, first compound 0.0316 µM
[6] = second compound 0.1 µM, first compound 0.1 µM
[7] = second compound 0.1 µM, first compound 0.316 µM
[8] = second compound 0.1 µM, first compound 1 µM
[9] = second compound 0.316 µM, first compound 0.0316 µM
[10] = second compound 0.316 µM, first compound 0.1 µM
[11] = second compound 0.316 µM, first compound 0.316 µM
[12] = second compound 0.316 µM, first compound 1 µM
[13] = second compound 1 µM, first compound 0.0316 µM
[14] = second compound 1 µM, first compound 0.1 µM
[15] = second compound 1 µM, first compound 0.316 µM
[16] = second compound 1 µM, first compound 1 µM
[17] = second compound 3.16 µM, first compound 0.0316 µM
[18] = second compound 3.16 µM, first compound 0.1 µM
[19] = second compound 3.16 µM, first compound 0.316 µM
[20] = second compound 3.16 µM, first compound 1 µM
[21] = second compound 10 µM, first compound 0.0316 µM
[22] = second compound 10 µM, first compound 0.1 µM
[23] = second compound 10 µM, first compound 0.316 µM
[24] = second compound 10 µM, first compound 1 µM
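Also: spheroids exposed to compounds for 7 days.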
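For viability, T/C in this document: 100% = DMSO vehicle control viability.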

- IC50 (second compound 0.0316 µM): > 10 µM
- IC50 (second compound 0.1 µM): > 10 µM
- IC50 (second compound 0.316 µM): 0.0316 µM
- IC50 (second compound 1 µM): < 0.0316 µM
- IC50 (second compound 3.16 µM): < 0.0316 µM
- IC50 (second compound 10 µM): < 0.0316 µM
SMILES: CC(=O)OC12COC1CC(O)C1(C)C(=O)C(O)C3=C(C)C(OC(=O)C(O)C(NC(=O)OC(C)(C)C)c4ccccc4)CC(O)(C(OC(=O)c4ccccc4)C21)C3(C)C (stereo unspecified) + C#Cc1c(F)ccc2cc(O)cc(-c3ncc4c(N5CC6CCC(C5)N6)nc(OCC56CCCN5CC(F)C6)nc4c3F)c12
- viability, T/C [1]: 55.1%
- viability, T/C [2]: 74.1%
- viability, T/C [3]: 77%
- viability, T/C [4]: 83.1%
- viability, T/C (second compound 0.0316 µM, first compound 3.16 µM): 76.5%
- viability, T/C (second compound 0.0316 µM, first compound 10 µM): 69.7%
- viability, T/C [5]: 70.7%
- viability, T/C [6]: 61.3%
- viability, T/C [7]: 56.5%
- viability, T/C [8]: 65.5%
- viability, T/C (second compound 0.1 µM, first compound 3.16 µM): 64.1%
- viability, T/C (second compound 0.1 µM, first compound 10 µM): 61.7%
- viability, T/C [9]: 55.7%
- viability, T/C [10]: 48.2%
- viability, T/C [11]: 46.6%
- viability, T/C [12]: 56.8%
- viability, T/C (second compound 0.316 µM, first compound 3.16 µM): 67.4%
- viability, T/C (second compound 0.316 µM, first compound 10 µM): 55.1%
- viability, T/C [13]: 34%
- viability, T/C [14]: 33.1%
- viability, T/C [15]: 37.5%
- viability, T/C [16]: 36.5%
- viability, T/C (second compound 1 µM, first compound 3.16 µM): 41%
- viability, T/C (second compound 1 µM, first compound 10 µM): 35.4%
- viability, T/C [17]: 21.2%
- viability, T/C [18]: 27.4%
- viability, T/C [19]: 29.6%
- viability, T/C [20]: 29.6%
- viability, T/C (second compound 3.16 µM, first compound 3.16 µM): 32%
- viability, T/C (second compound 3.16 µM, first compound 10 µM): 29.5%
- viability, T/C [21]: 23.1%
- viability, T/C [22]: 22.2%
- viability, T/C [23]: 22.2%
- viability, T/C [24]: 20.9%
- viability, T/C (second compound 10 µM, first compound 3.16 µM): 24.1%
- viability, T/C (second compound 10 µM, first compound 10 µM): 22.9%

- IC50 (second compound 0.0316 µM): > 1 µM
- IC50 (second compound 0.1 µM): > 1 µM
- IC50 (second compound 0.316 µM): > 1 µM
- IC50 (second compound 1 µM): < 0.00316 µM
- IC50 (second compound 3.16 µM): < 0.00316 µM
- IC50 (second compound 10 µM): < 0.00316 µM
SMILES: CCN1CCN(Cc2ccc(Nc3ncc(F)c(-c4cc(F)c5nc(C)n(C(C)C)c5c4)n3)nc2)CC1 + C#Cc1c(F)ccc2cc(O)cc(-c3ncc4c(N5CC6CCC(C5)N6)nc(OCC56CCCN5CC(F)C6)nc4c3F)c12
- viability, T/C (second compound 0.0316 µM, first compound 0.00316 µM): 79%
- viability, T/C (second compound 0.0316 µM, first compound 0.01 µM): 103%
- viability, T/C [1]: 88%
- viability, T/C [2]: 59.5%
- viability, T/C [3]: 69.3%
- viability, T/C [4]: 69.7%
- viability, T/C (second compound 0.1 µM, first compound 0.00316 µM): 87.2%
- viability, T/C (second compound 0.1 µM, first compound 0.01 µM): 86.3%
- viability, T/C [5]: 65.3%
- viability, T/C [6]: 62.4%
- viability, T/C [7]: 59%
- viability, T/C [8]: 77.4%
- viability, T/C (second compound 0.316 µM, first compound 0.00316 µM): 73.3%
- viability, T/C (second compound 0.316 µM, first compound 0.01 µM): 66.4%
- viability, T/C [9]: 63.3%
- viability, T/C [10]: 55%
- viability, T/C [11]: 48.5%
- viability, T/C [12]: 73.1%
- viability, T/C (second compound 1 µM, first compound 0.00316 µM): 48.3%
- viability, T/C (second compound 1 µM, first compound 0.01 µM): 51.5%
- viability, T/C [13]: 43%
- viability, T/C [14]: 33.5%
- viability, T/C [15]: 35.4%
- viability, T/C [16]: 55.8%
- viability, T/C (second compound 3.16 µM, first compound 0.00316 µM): 28.2%
- viability, T/C (second compound 3.16 µM, first compound 0.01 µM): 32%
- viability, T/C [17]: 27.7%
- viability, T/C [18]: 28%
- viability, T/C [19]: 35.2%
- viability, T/C [20]: 42.1%
- viability, T/C (second compound 10 µM, first compound 0.00316 µM): 23.2%
- viability, T/C (second compound 10 µM, first compound 0.01 µM): 22.8%
- viability, T/C [21]: 21.9%
- viability, T/C [22]: 19.4%
- viability, T/C [23]: 25.7%
- viability, T/C [24]: 35.2%

- IC50 (second compound 0.000949 µM): < 0.00316 µM
- IC50 (second compound 0.003 µM): < 0.00316 µM
- IC50 (second compound 0.00949 µM): < 0.00316 µM
- IC50 (second compound 0.03 µM): < 0.00316 µM
- IC50 (second compound 0.0949 µM): < 0.00316 µM
- IC50 (second compound 0.3 µM): < 0.00316 µM
SMILES: Nc1ccn(C2OC(CO)C(O)C2(F)F)c(=O)n1 (stereo unspecified) + CCn1c(-c2cccnc2C(C)OC)c2c3cc(ccc31)N1CCOC(CC(NC(=O)C(C(C)C)N(C)C(=O)C3(F)CCN(C(=O)C#CC(C)(C)N(C)C)CC3)C(=O)N3CCCC(N3)C(=O)OCC(C)(C)C2)C1
- viability, T/C (second compound 0.000949 µM, first compound 0.00316 µM): 25.9%
- viability, T/C (second compound 0.000949 µM, first compound 0.01 µM): 23.6%
- viability, T/C (second compound 0.000949 µM, first compound 0.0316 µM): 25.8%
- viability, T/C (second compound 0.000949 µM, first compound 0.1 µM): 23.4%
- viability, T/C (second compound 0.000949 µM, first compound 0.316 µM): 23.1%
- viability, T/C (second compound 0.000949 µM, first compound 1 µM): 18.5%
- viability, T/C (second compound 0.003 µM, first compound 0.00316 µM): 22.8%
- viability, T/C (second compound 0.003 µM, first compound 0.01 µM): 20.6%
- viability, T/C (second compound 0.003 µM, first compound 0.0316 µM): 20.3%
- viability, T/C (second compound 0.003 µM, first compound 0.1 µM): 17.5%
- viability, T/C (second compound 0.003 µM, first compound 0.316 µM): 16.3%
- viability, T/C (second compound 0.003 µM, first compound 1 µM): 13.8%
- viability, T/C (second compound 0.00949 µM, first compound 0.00316 µM): 22.7%
- viability, T/C (second compound 0.00949 µM, first compound 0.01 µM): 20.1%
- viability, T/C (second compound 0.00949 µM, first compound 0.0316 µM): 17.9%
- viability, T/C (second compound 0.00949 µM, first compound 0.1 µM): 15.7%
- viability, T/C (second compound 0.00949 µM, first compound 0.316 µM): 15.6%
- viability, T/C (second compound 0.00949 µM, first compound 1 µM): 15.2%
- viability, T/C (second compound 0.03 µM, first compound 0.00316 µM): 18.8%
- viability, T/C (second compound 0.03 µM, first compound 0.01 µM): 22.6%
- viability, T/C (second compound 0.03 µM, first compound 0.0316 µM): 17.1%
- viability, T/C (second compound 0.03 µM, first compound 0.1 µM): 13.3%
- viability, T/C (second compound 0.03 µM, first compound 0.316 µM): 14.6%
- viability, T/C (second compound 0.03 µM, first compound 1 µM): 16.9%
- viability, T/C (second compound 0.0949 µM, first compound 0.00316 µM): 17.2%
- viability, T/C (second compound 0.0949 µM, first compound 0.01 µM): 17.9%
- viability, T/C (second compound 0.0949 µM, first compound 0.0316 µM): 15.9%
- viability, T/C (second compound 0.0949 µM, first compound 0.1 µM): 13.1%
- viability, T/C (second compound 0.0949 µM, first compound 0.316 µM): 13.3%
- viability, T/C (second compound 0.0949 µM, first compound 1 µM): 12.9%
- viability, T/C (second compound 0.3 µM, first compound 0.00316 µM): 14.2%
- viability, T/C (second compound 0.3 µM, first compound 0.01 µM): 17.2%
- viability, T/C (second compound 0.3 µM, first compound 0.0316 µM): 14.3%
- viability, T/C (second compound 0.3 µM, first compound 0.1 µM): 12.4%
- viability, T/C (second compound 0.3 µM, first compound 0.316 µM): 12.5%
- viability, T/C (second compound 0.3 µM, first compound 1 µM): 11.4%
